Experimental data taken from PubChem BioAssay AID2060889 (Molecular Pharmacology Branch, DTP, NCI, 2025).

Test system: LG0567-F671-PDC complex spheroids viability
Assay: Anticancer human tumor LG0567-F671-PDC patient-derived lung adenocarcinoma cell line growth inhibition [RAS]
Conditions: for viability, T/C: stronger effect = lower value; active = viability on the fitted dose curve at most 10% of control; inactive = the rest
Procedure, shortened: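 Agents were tested in combination matrices in half-log decrements from a top concentration at or near clinical Cmax (10 microM if undetermined). Targets were multi-cell spheroids of tumour lines plus HUVEC and MSC stromal cells.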

[1] = curve of first compound, second compound 0.00316 µM
[2] = curve of first compound, second compound 0.01 µM
[3] = curve of first compound, second compound 0.0316 µM
[4] = curve of first compound, second compound 0.1 µM
[5] = curve of first compound, second compound 0.316 µM
[6] = curve of first compound, second compound 1 µM
[7] = second compound 0.00316 µM, first compound 0.00316 µM
[8] = second compound 0.00316 µM, first compound 0.01 µM
[9] = second compound 0.00316 µM, first compound 0.0316 µM
[10] = second compound 0.00316 µM, first compound 0.1 µM
[11] = second compound 0.01 µM, first compound 0.00316 µM
[12] = second compound 0.01 µM, first compound 0.01 µM
[13] = second compound 0.01 µM, first compound 0.0316 µM
[14] = second compound 0.01 µM, first compound 0.1 µM
[15] = second compound 0.0316 µM, first compound 0.00316 µM
[16] = second compound 0.0316 µM, first compound 0.01 µM
[17] = second compound 0.0316 µM, first compound 0.0316 µM
[18] = second compound 0.0316 µM, first compound 0.1 µM
[19] = second compound 0.0316 µM, first compound 0.316 µM
[20] = second compound 0.0316 µM, first compound 1 µM
[21] = second compound 0.1 µM, first compound 0.00316 µM
[22] = second compound 0.1 µM, first compound 0.01 µM
[23] = second compound 0.1 µM, first compound 0.0316 µM
[24] = second compound 0.1 µM, first compound 0.1 µM
[25] = second compound 0.1 µM, first compound 0.316 µM
[26] = second compound 0.1 µM, first compound 1 µM
[27] = second compound 0.316 µM, first compound 0.00316 µM
[28] = second compound 0.316 µM, first compound 0.01 µM
[29] = second compound 0.316 µM, first compound 0.0316 µM
[30] = second compound 0.316 µM, first compound 0.1 µM
[31] = second compound 0.316 µM, first compound 0.316 µM
[32] = second compound 0.316 µM, first compound 1 µM
[33] = second compound 1 µM, first compound 0.00316 µM
[34] = second compound 1 µM, first compound 0.01 µM
[35] = second compound 1 µM, first compound 0.0316 µM
[36] = second compound 1 µM, first compound 0.1 µM
[37] = second compound 1 µM, first compound 0.316 µM
[38] = second compound 1 µM, first compound 1 µM
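Also: spheroids exposed to compound for seven days before readout.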
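For IC50 in this document: luminescence signal used as a proxy for viable cells.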

C=CC(=O)Nc1cc(Nc2nccc(-c3cn(C)c4ccccc34)n2)c(OC)cc1N(C)CCN(C)C + C=CC(=O)N1CCN(c2nc(OCC3CCCN3C)nc3c(F)c(-c4nc(N)cc(C)c4C(F)(F)F)c(Cl)cc23)C(C)C1
inactive: viability, T/C [7] 18.7% | viability, T/C [8] 15.6% | viability, T/C [9] 12.6% | viability, T/C [11] 15.1% | viability, T/C [12] 12.1% | viability, T/C [15] 13.3% | viability, T/C [16] 12.7% | viability, T/C [21] 15% | viability, T/C [22] 11.8% | viability, T/C [27] 14% | viability, T/C [28] 11.4% | viability, T/C [33] 13.3% | viability, T/C [34] 12.2% | viability, T/C [35] 11.4%
active: viability, T/C [10] 12.6% | viability, T/C (second compound 0.00316 µM, first compound 0.316 µM) 4.81% | viability, T/C (second compound 0.00316 µM, first compound 1 µM) 3.52% | viability, T/C [13] 10% | viability, T/C [14] 8.19% | viability, T/C (second compound 0.01 µM, first compound 0.316 µM) 4.72% | viability, T/C (second compound 0.01 µM, first compound 1 µM) 2.49% | viability, T/C [17] 9.76% | viability, T/C [18] 7.26% | viability, T/C [19] 6.15% | viability, T/C [20] 2.62% | viability, T/C [23] 9.84% | viability, T/C [24] 7.87% | viability, T/C [25] 4.28% | viability, T/C [26] 2.86% | viability, T/C [29] 9.92% | viability, T/C [30] 6.96% | viability, T/C [31] 4.73% | viability, T/C [32] 3.38% | viability, T/C [36] 10.6% | viability, T/C [37] 4.57% | viability, T/C [38] 3.23%
< 3.16 nM: IC50 [1] | IC50 [2] | IC50 [3] | IC50 [4] | IC50 [5] | IC50 [6]

CC(C)n1nc(-c2ccc3oc(N)nc3c2)c2c(N)ncnc21 + C=CC(=O)N1CCN(c2nc(OCC3CCCN3C)nc3c(F)c(-c4nc(N)cc(C)c4C(F)(F)F)c(Cl)cc23)C(C)C1
active: viability, T/C [9] 7.75% | viability, T/C [10] 6.24% | viability, T/C [11] 10.5% | viability, T/C [12] 7.96% | viability, T/C [13] 7.27% | viability, T/C [14] 4.67% | viability, T/C [15] 9.25% | viability, T/C [16] 10.8% | viability, T/C [17] 6.75% | viability, T/C [18] 4.77% | viability, T/C [21] 10.9% | viability, T/C [22] 8.59% | viability, T/C [23] 7.47% | viability, T/C [24] 4.81% | viability, T/C [27] 9.88% | viability, T/C [28] 7.87% | viability, T/C [29] 6.07% | viability, T/C [30] 4.55% | viability, T/C [34] 10.9% | viability, T/C [35] 7.1% | viability, T/C [36] 5.83%
inactive: viability, T/C (second compound 0.00316 µM, first compound 0.000316 µM) 13.7% | viability, T/C (second compound 0.00316 µM, first compound 0.001 µM) 17.2% | viability, T/C [7] 11.4% | viability, T/C [8] 9.86% | viability, T/C (second compound 0.01 µM, first compound 0.000316 µM) 12.6% | viability, T/C (second compound 0.01 µM, first compound 0.001 µM) 10.8% | viability, T/C (second compound 0.0316 µM, first compound 0.000316 µM) 12.2% | viability, T/C (second compound 0.0316 µM, first compound 0.001 µM) 11.5% | viability, T/C (second compound 0.1 µM, first compound 0.000316 µM) 11.1% | viability, T/C (second compound 0.1 µM, first compound 0.001 µM) 10.7% | viability, T/C (second compound 0.316 µM, first compound 0.000316 µM) 11.6% | viability, T/C (second compound 0.316 µM, first compound 0.001 µM) 10.8% | viability, T/C (second compound 1 µM, first compound 0.000316 µM) 14.2% | viability, T/C (second compound 1 µM, first compound 0.001 µM) 11.4% | viability, T/C [33] 14.3%
< 0.316 nM: IC50 [1] | IC50 [2] | IC50 [3] | IC50 [4] | IC50 [5] | IC50 [6]

CC(C)NCC(C(=O)N1CCN(c2ncnc3c2C(C)CC3O)CC1)c1ccc(Cl)cc1 (configuration not stated) + C#Cc1c(F)ccc2cc(O)cc(-c3ncc4c(N5CC6CCC(C5)N6)nc(OCC56CCCN5CC(F)C6)nc4c3F)c12
inactive: viability, T/C [17] 93.5% | viability, T/C [18] 88.3% | viability, T/C [19] 72% | viability, T/C [20] 60.1% | viability, T/C (second compound 0.0316 µM, first compound 3.16 µM) 63.5% | viability, T/C (second compound 0.0316 µM, first compound 10 µM) 55% | viability, T/C [23] 84.2% | viability, T/C [24] 66% | viability, T/C [25] 70.6% | viability, T/C [26] 51.3% | viability, T/C (second compound 0.1 µM, first compound 3.16 µM) 59.3% | viability, T/C (second compound 0.1 µM, first compound 10 µM) 56.4% | viability, T/C [29] 50.3% | viability, T/C [30] 50.1% | viability, T/C [31] 54.7% | viability, T/C [32] 35.9% | viability, T/C (second compound 0.316 µM, first compound 3.16 µM) 47% | viability, T/C (second compound 0.316 µM, first compound 10 µM) 51.6% | viability, T/C [35] 35.4% | viability, T/C [36] 29.8% | viability, T/C [37] 30% | viability, T/C [38] 28.1% | viability, T/C (second compound 1 µM, first compound 3.16 µM) 28.2% | viability, T/C (second compound 1 µM, first compound 10 µM) 31.2% | viability, T/C (second compound 3.16 µM, first compound 0.0316 µM) 19.4% | viability, T/C (second compound 3.16 µM, first compound 0.1 µM) 17.9% | viability, T/C (second compound 3.16 µM, first compound 0.316 µM) 19.2% | viability, T/C (second compound 3.16 µM, first compound 1 µM) 13.9% | viability, T/C (second compound 3.16 µM, first compound 3.16 µM) 14.9% | viability, T/C (second compound 3.16 µM, first compound 10 µM) 13.4% | viability, T/C (second compound 10 µM, first compound 0.0316 µM) 12.4% | viability, T/C (second compound 10 µM, first compound 0.1 µM) 12.7% | viability, T/C (second compound 10 µM, first compound 0.316 µM) 11.1%
62.2 nM: IC50 [5]
< 31.6 nM: IC50 [6] | IC50 (curve of first compound, second compound 3.16 µM) | IC50 (curve of first compound, second compound 10 µM)
active: viability, T/C (second compound 10 µM, first compound 1 µM) 9.42% | viability, T/C (second compound 10 µM, first compound 3.16 µM) 8.58% | viability, T/C (second compound 10 µM, first compound 10 µM) 5.74%
> 10000 nM: IC50 [3] | IC50 [4]

CC(C)NCC(C(=O)N1CCN(c2ncnc3c2C(C)CC3O)CC1)c1ccc(Cl)cc1 (configuration not stated)
> 10000 nM: IC50 (curve of compound)
inactive: viability, T/C (compound 0.0316 µM) 101% [middle of 4 runs] | viability, T/C (compound 0.1 µM) 91.3% [middle of 4 runs] | viability, T/C (compound 0.316 µM) 77.4% [middle of 4 runs] | viability, T/C (compound 1 µM) 61.6% [middle of 4 runs] | viability, T/C (compound 10 µM) 63.5% [middle of 4 runs]
